The text below walks through data of ChEMBL document CHEMBL3045337, “A Comparative Study: Evaluation of Antioxidant Activity of Melatonin and Some Indole Derivatives” (Med Chem Res, 2005).

Assay [1] is described as follows: Antioxidant activity assessed as superoxide radical scavenging activity at 10 '-4 M measured for 3 min by spectrophotometry relative to control. It counts as functional.
Assay [2] deals with Liver. Description: Antioxidant activity in Rattus norvegicus (rat) liver homogenate assessed as inhibition of lipid peroxidation measuring TBARS production at 10 '-4 M after 1 hr by spectrophotometry relative to control. It counts as functional, tissue-based.
The nature of assay [3]: Antioxidant activity assessed as superoxide radical scavenging activity at 10 '-3 M measured for 3 min by spectrophotometry relative to control. Type of assay: functional.
Assay [4] deals with Liver. Put plainly: Antioxidant activity in Rattus norvegicus (rat) liver homogenate assessed as inhibition of lipid peroxidation measuring TBARS production at 10 '-3 M after 1 hr by spectrophotometry relative to control. It counts as functional, tissue-based.

In the case of `CN(C)CCNC(=O)CCc1c[nH]c2ccccc12`, the Superoxide level, % of control in assay [1] was found to be 94%. For the same compound, the TBARS production (% of control) in the assay on Liver [2] was 101%. Moreover, in assay [3], the Activity came out at 83%. Besides, the inhibition – broadly, how much of the control response was suppressed – with Liver [4] came out at 28%.
As to `CCCCCNC(=O)CCc1c[nH]c2ccccc12`, the Superoxide level, % of control in assay [1] came out at 103%. The TBARS production (% of control) in the assay on Liver [2] stood at 94%. In addition, the Activity in assay [3] is 87%. Moreover, the inhibition with Liver [4] is 25%.
The matching figures for `COC(=O)CCc1c[nH]c2ccccc12`: 54%, 114%, 70% and 56%.
The matching figures for `Cc1c(C)c2c(c(C)c1O)CC[C@@](C)(CCC[C@H](C)CCC[C@H](C)CCCC(C)C)O2`: 83%, 46%, 14% and 27%.
Take `CN(C)CCCNC(=O)CCc1c[nH]c2ccccc12`: in assay [1], the Superoxide level, % of control worked out at 98%. The TBARS production (% of control) in the assay on Liver [2] worked out at 102%. Also, the Activity in assay [3] was 98%. The inhibition in the assay with Liver [4] was 27%.
For `CCN(CC)CCNC(=O)CCc1c[nH]c2ccccc12`, the Superoxide level, % of control in assay [1] turned out to be 102%. Besides, in the assay with Liver [2], the TBARS production (% of control) came to 51%. Moreover, in assay [3], the Activity turned out to be 91%. Also, the inhibition in the assay with Liver [4] was found to be 26%.
Take `CCCCNC(=O)CCc1c[nH]c2ccccc12`: the Superoxide level, % of control in assay [1] amounted to 104%. Besides, the TBARS production (% of control) in the assay on Liver [2] turned out to be 100%. Moreover, in assay [3], the Activity was found to be 85%. Further, in the assay on Liver [4], the inhibition came out at 28%.
For the compound `CCCNC(=O)CCc1c[nH]c2ccccc12`, the Superoxide level, % of control in assay [1] was 100%. Also, the TBARS production (% of control) in the assay with Liver [2] was found to be 102%. The Activity in assay [3] worked out at 94%. The inhibition in the assay on Liver [4] was determined as 28%.
The matching figures for `COc1ccc2[nH]cc(CCNC(C)=O)c2c1`: 90%, 93%, 84% and 28%.
The matching figures for `CCN(CC)CCCNC(=O)CCc1c[nH]c2ccccc12`: 108%, 96%, 90% and 31%.
